Data: BindingDB's records for doi:10.1021/jm9602571 (Dupont Pharmaceuticals, 1996)
pKi: −log10 of the molar value.

Biological target: T1, Dimer of Gag-Pol polyprotein [501-599] (Human immunodeficiency virus 1, UniProt P03367)
T1 construct: 501-599
Experiment: Protease Inhibition Assay
Conditions: pH 5.5; 37 °C

Nc1cccc(CN2C(=O)N(Cc3cccc(N)c3)[C@H](Cc3ccccc3)[C@H](O)[C@@H](O)[C@H]2Cc2ccccc2)c1
pKi: 9.47

O=C1N(CC2CCCC2)[C@H](Cc2ccccc2)[C@H](O)[C@@H](O)[C@@H](Cc2ccccc2)N1CC1CCCC1
pKi: 8.40
